Each structure is given as a SMILES string. “And” between values parts separate entries of the source, which are not always exact repeats. Equal values may be shown once. Read-outs that look alike come from different tables or passages of the source.

Results on 3 compounds are retold here after patent US12048689B2, “Pharmaceutical composition for preventing or treating inflammatory bowel disease acting as a functional antagonist for S1PR1 and S1PR4” (NEXTGEN BIOSCIENCE CO., LTD., priority 2022, dated 2024).

One data set has as its system DSS-induced colitis mice. The data set is described as follows: Dextran sulfate sodium (DSS)-induced colitis model, disease activity index. Format: in vivo. Here is the method: The effect of NXC736 for inflammatory bowel disease was evaluated using a dextran sulfate sodium (DSS)-induced colitis model. In the mouse model, inflammatory bowel disease was induced by administering DSS to mice in drinking water at a concentration of 2.5%. Treatment groups consisted of a test group administered NXC736, a positive control administered ozanimod or methotrexate (MTX), a vehicle group and a normal control, and each group had n=10. In the model in which inflammatory bowel disease was induced, NXC736, which is the compound of the present invention, was orally administered at a dose of 5 and 10 mg/kg once a day for 7 days, ozanimod as a positive control material was orally administered at 5 mg/kg once a day, and methotrexate (MTX) as a positive control material was intraperitoneally administered at 3 mg/kg three times a week.
FIG. 3 illustrates the disease activity index (DAI) of DSS-induced colitis mice and the area under the disease activity index curve (AUC) of DSS-induced colitis mice. […] The calculation criteria for DAI are shown in the following Table 1, and the DAI was evaluated on days 0, 1, 2, 3, 4, 5, 6, 7, and 8.

Data set [1] has as its target hERG potassium ion channels (Homo sapiens, UniProt Q12809).
Data set [2] can be described thus: Cardiovascular system in beagle dogs (telemetry heart rate, general symptoms). It is filed as in vivo. The settings on record: oral 12.5, 25 and 50 mg/kg. The method, then: NXC736 was orally administered to four male beagle dogs under unanesthetized and unrestrained conditions with a remote transmitter inserted. Thereafter, the effect of NXC736 on the cardiovascular system was evaluated by measuring the heart rate for four beagle dogs, and it was confirmed with the naked eye whether abnormal symptoms appeared.
In this experiment, the experimental material was administered to each of the four beagle dogs over four steps. A 0.5% MC aqueous solution, which is an excipient, was administered as a control material in the first administration step (NXC7365 at 0 mg/kg), NXC736 at 12.5 mg/kg was administered in the second administration step, NXC736 at 25 mg/kg was administered in the third administration step, and NXC736 at 50 mg/kg was administered in the fourth administration step. The 1st to 4th administrations were performed at intervals of 1 week. In addition, at 0 hours before administration of the experimental material and at 0.5 hours, 1 hour, 2 hours, 3 hours, 4 hours, 6 hours, 8 hours, 12 hours and 24 hours after administration of the test material, the beagle dog's heart rate were measured.

In data set [3] the test system is T cells, CD4 T cells, and CD8 T cells. Put plainly: Suppressive effect on rat immune cells (FACS of peripheral blood and bone marrow after oral administration). Format: in vivo. As to conditions: SD rats. Here is the method: To evaluate the effect of NXC736 on rat immune cells, after oral administration of NXC736 at 10 mg/kg/day to SD rats, changes in lymphocytes in the peripheral blood (PB) stream and bone marrow (BM) were classified for T cells, CD4 T cells, and CD8 T cells, and FACS analysis was performed at 0, 4, 8, 12, 24, 36, and 48 hours after the administration of a test material. A cell number was measured and shown as a percentage (%) of a control based on 0 time, and the numbers of T cells, CD4 T cells, and CD8 T cells were measured and shown as a percentage (%) of a control based on 0 time.

Data set [4] has the same test system. Put plainly: Suppressive effect on mouse immune cells (FACS of peripheral blood and bone marrow after oral administration). Format: in vivo. The settings on record: mice; for Cell number in bone marrow, percentage of control based on 0 time: listed as NXC7363, 3 mg/kg. Here is the method: To confirm whether NXC736, which acts on the S1P receptor, also has an effect on lymphocyte reduction, the effect of NXC736 on immune cells was evaluated. After oral administration of NXC736 at 3 mg/kg/day to mice, changes in lymphocytes in the peripheral blood (PB) stream and bone marrow (BM) were classified for T cells, CD4T cells, and CD8T cells, and FACS analysis was performed at 0, 4, 8, 12, 24, and 36 hours after the administration of a test material. A cell number was measured and shown as a percentage (%) of a control based on 0 time.

[5] abbreviates: oral 3 mg/kg, peripheral blood, 4 hours, 3 mg/kg.

Chain of hERG potassium ion channels (Q12809 whole entry): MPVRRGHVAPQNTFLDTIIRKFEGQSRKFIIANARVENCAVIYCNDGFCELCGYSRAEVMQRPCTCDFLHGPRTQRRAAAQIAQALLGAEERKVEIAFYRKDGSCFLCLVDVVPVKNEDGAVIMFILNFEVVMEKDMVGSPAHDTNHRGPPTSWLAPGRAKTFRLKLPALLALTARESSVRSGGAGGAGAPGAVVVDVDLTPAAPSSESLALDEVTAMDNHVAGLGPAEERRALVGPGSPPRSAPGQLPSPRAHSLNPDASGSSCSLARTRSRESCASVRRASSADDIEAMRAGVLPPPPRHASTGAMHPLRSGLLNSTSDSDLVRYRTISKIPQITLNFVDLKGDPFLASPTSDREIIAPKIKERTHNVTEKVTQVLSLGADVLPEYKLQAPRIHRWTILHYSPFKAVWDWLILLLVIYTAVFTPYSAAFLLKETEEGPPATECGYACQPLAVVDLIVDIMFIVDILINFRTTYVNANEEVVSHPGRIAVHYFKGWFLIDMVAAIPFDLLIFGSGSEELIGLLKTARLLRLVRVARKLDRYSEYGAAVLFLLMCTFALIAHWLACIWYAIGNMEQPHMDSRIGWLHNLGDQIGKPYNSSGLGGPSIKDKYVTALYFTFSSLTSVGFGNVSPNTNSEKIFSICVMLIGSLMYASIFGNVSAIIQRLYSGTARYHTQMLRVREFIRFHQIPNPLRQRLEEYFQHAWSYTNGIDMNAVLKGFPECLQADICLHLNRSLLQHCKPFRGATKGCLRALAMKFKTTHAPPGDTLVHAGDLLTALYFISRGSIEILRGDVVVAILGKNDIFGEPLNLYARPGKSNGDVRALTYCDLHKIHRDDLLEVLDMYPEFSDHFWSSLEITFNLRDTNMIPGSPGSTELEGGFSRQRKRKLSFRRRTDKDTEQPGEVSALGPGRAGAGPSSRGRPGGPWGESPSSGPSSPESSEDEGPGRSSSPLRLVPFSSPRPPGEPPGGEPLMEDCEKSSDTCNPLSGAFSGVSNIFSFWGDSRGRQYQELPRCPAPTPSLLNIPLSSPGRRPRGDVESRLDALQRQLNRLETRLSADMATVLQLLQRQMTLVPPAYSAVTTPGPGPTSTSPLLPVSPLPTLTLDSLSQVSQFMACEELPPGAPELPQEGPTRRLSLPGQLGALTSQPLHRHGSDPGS

Turning to `CC(C)Oc1ccc(-c2nc(-c3cccc4c3CC[C@@H]4NCCO)no2)cc1C#N` [ozanimod, reference compound], in the data set on DSS-induced colitis mice (ozanimod 5 mg/kg orally once a day), the “Disease activity index (DAI) and AUC compared to negative control (vehicle)” value (from here on “Disease activity index (DAI) and AUC”) is recorded as “statistically significant reduction effect”.

The compound `CCCCCCCCCCn1cc(CCC(N)(CO)CO)nn1` [NXC736, 2-amino-2-(2-(1-decyl-1H-1,2,3-triazol-4-yl)ethyl)propane-1,3-diol] displayed a Hill coefficient in data set [1] of 1.527. In addition, the “Compensated suppression rate of hERG channel currents” value in data set [1] (1 μM) is 9.94±1.96%; in data set [1] (3 μM), 13.98±4.48%; in data set [1] (10 μM), 35.03±12.09%; in data set [1] (30 μM), 82.62±7.31%. Further, the “General symptoms observed with the naked eye” value in data set [2] was “no abnormal symptoms”. Further, in data set [2] (0 to 24 hours), the “Change in heart rate” value was “no change in heart rate”. For the same compound, the “Time until which the suppressive effect on T cells was maintained” value in data set [3] (oral 10 mg/kg, peripheral blood) amounted to 24 h. In data set [3] (oral, bone marrow), the “Change of cell number in bone marrow” value was “no change or a tendency to increase”. Further, the “Suppressive effect on number of T cells in peripheral blood” value in data set [3] (oral, peripheral blood, dose-dependent (doses of the three values not given)) is 70% and 80% and 87%. In addition, the “Cell number in bone marrow, percentage of control based on 0 time” value is 135% and 120% in data set [4] (3 mg/kg, 4 hours after administration); 131% and 118% in data set [4] (3 mg/kg, 24 hours after administration). Besides, the “Time until which the suppressive effect on T cell number was maintained to some extent” value in data set [4] (3 mg/kg, reduced from 4 hours, then recovered) was found to be 24 h. For the same compound, the “Time until which the reduction of cell number in peripheral blood was maintained” value in data set [4] (oral 3 mg/kg, peripheral blood) was 12 h. Besides, the “CD4 T cell number in peripheral blood, percentage of control based on 0 time” value in data set [4] (setting [5]) was 16.4% and 17.6%. In data set [4] (setting [5]), the “CD8 T cell number in peripheral blood, percentage of control based on 0 time” value was 5.9% and 9.3%. For the same compound, the “T cell number in peripheral blood, percentage of control based on 0 time” value in data set [4] (setting [5]) was 40.6% and 41.6%. Further, in data set [4] (oral 3 mg/kg, peripheral blood, 36 hours), the “Cell number level recovered in peripheral blood, percentage of control” value is 88.9%. Further, the “Clinical indicators (body weight loss, stool concentration, intestinal bleeding) compared to ozanimod” value with DSS-induced colitis mice (NXC736 5 mg/kg and 10 mg/kg vs ozanimod 5 mg/kg) was “equivalent values or more”. The “Disease activity index (DAI) and AUC” value with DSS-induced colitis mice (NXC736 5 mg/kg orally once a day for 7 days) and in the data set with DSS-induced colitis mice (NXC736 10 mg/kg orally once a day for 7 days) was “statistically significant reduction effect” each time.

In the case of `CN(Cc1cnc2nc(N)nc(N)c2n1)c1ccc(C(=O)N[C@@H](CCC(=O)O)C(=O)O)cc1` [MTX, methotrexate, reference compound], in the data set on DSS-induced colitis mice (MTX 3 mg/kg intraperitoneally three times a week), the “Disease activity index (DAI) and AUC” value is listed as “statistically significant reduction effect”.

As usually defined, the Hill coefficient is the slope factor of the fitted curve.
